This passage reports IC50 results from US8580803B2, “Substituted pyrrolo-aminopyrimidine compounds” (ArQule, Inc., priority 2009, dated 2013).

What is called IC50 is the concentration needed to halve the response being measured. A higher IC50 goes with a need for much substance.

Experiment [1] addresses T1, ACK1 (110-489) (Homo sapiens, UniProt Q07912).
T1 construct: ACK1 110-489 (12.5 μl) were added to each well
The experiment can be described thus: ACK1 Activity Assay (AlphaScreen, PYK2-derived peptide). Type of experiment: biochemical. As for the experimental part:
The extent of peptide phosphorylation was determined by using acceptor beads conjugated to phosphotyrosine antibody that recognizes the phosphorylated peptide and donor beads conjugated to streptavidin that binds to the biotin on the peptide. Excitation of the donor beads converted ambient oxygen to excited singlet oxygen which when in close proximity to acceptor beads, reacted with acceptor beads where the signal was amplified.
Test inhibitors and controls (N-(2,6-dimethylphenyl)-4-(2-ethoxyphenoxy)-2-[(4-piperazin-1-ylphenyl)amino]pyrimidine-5-carboxamide) were prepared in 10% DMSO at 10× the desired final concentration. […] After a 20-min incubation at room temperature, the kinase reaction was initiated by the addition of 10 μl of PYK2/ATP mixture. […] The plates were incubated for 60 min at room temperature. The reaction was stopped by the addition of 10 μl stop/detection mixture which contains EDTA (final concentration is 10 mM), AlphaScreen™ Streptavidin Donor beads (final concentration is 500 ng/well) and AlphaScreen™ Phospho-tyrosine (P-Tyr-100) Acceptor beads (final concentration is 500 ng/well) were diluted in assay buffer. This reagent addition step was performed in the dark because the AlphaScreen™ beads are light-sensitive. The plate was incubated for 60 min at room temperature in the dark and the plates were read on the Perkin Elmer Envision Multilabel plate reader ([…]).

Experiment [2] deals with AKT1 (Homo sapiens, UniProt P31749). The experiment in a line: AKT Kinase Activity Assay (AlphaScreen, crosstide). As to conditions: Average of Akt1 biochemical assay. As for the experimental part: AKT1 activity was assayed using the GSK3-derived biotinylated peptide substrate, crosstide (biotin-GRPRTSSFAEG), and AlphaScreen™ (Amplified Luminescent Proximity Homogeneous Assay) technology. AKT1 activation was achieved by the addition of the activating kinases PDK1 and MAPKAPK2, lipid vesicles, and ATP. The extent of peptide phosphorylation was determined using a phospho-AKT substrate antibody and acceptor beads conjugated to Protein A and donor beads conjugated to streptavidin that bind to the biotin on the peptide. Excitation of the donor beads converted ambient oxygen to excited singlet oxygen which, when in close proximity to acceptor beads, reacted with acceptor beads resulting in signal amplification.
Test inhibitors and controls (Abbott inhibitor, Merck pre-clinical inhibitor, and Merck clinical inhibitor) were prepared in 10% DMSO at 10-fold the desired final concentration, and added to each well of a reaction plate (Corning 96-well half-area solid white nonbinding surface plate) in a volume of 2.5 μL. […] After a 20 minute pre-incubation at room temperature, the kinase reaction was initiated by the addition of 5 μL of an activation mixture diluted in assay buffer containing biotinylated crosstide, PDK1, MAPKAPK2, DOPS/DOPC, PtdIns(3,4,5)P3, and ATP for final concentrations of 60 nM biotinylated crosstide, 0.1 nM PDK1, 0.7 nM MK2, 5.5 μM DOPS, 5.5 μM DOPC, 0.5 μM PtdIns(3,4,5)P3, and 50 μM ATP. The plates were incubated for 30 minutes at room temperature, and then stopped in the dark by the addition of 10 μL stop/detection mixture prepared in assay buffer containing EDTA, AlphaScreen™ Streptavidin Donor and Protein A Acceptor beads, and phospho-AKT substrate antibody for final concentrations of 10 mM EDTA, 500 ng/well of both AlphaScreen™ Streptavidin Donor beads and Protein A Acceptor beads, and phospho-AKT substrate antibody at a final dilution of 1:350. Assay plates were incubated for 90 minutes at room temperature in the dark, and the plates were read on a Perkin Elmer Envision Multilabel plate reader ([…]).
(In general: Alpha assays give light when donor and acceptor beads are brought close together.)

Chain of AKT1 (P31749 whole entry): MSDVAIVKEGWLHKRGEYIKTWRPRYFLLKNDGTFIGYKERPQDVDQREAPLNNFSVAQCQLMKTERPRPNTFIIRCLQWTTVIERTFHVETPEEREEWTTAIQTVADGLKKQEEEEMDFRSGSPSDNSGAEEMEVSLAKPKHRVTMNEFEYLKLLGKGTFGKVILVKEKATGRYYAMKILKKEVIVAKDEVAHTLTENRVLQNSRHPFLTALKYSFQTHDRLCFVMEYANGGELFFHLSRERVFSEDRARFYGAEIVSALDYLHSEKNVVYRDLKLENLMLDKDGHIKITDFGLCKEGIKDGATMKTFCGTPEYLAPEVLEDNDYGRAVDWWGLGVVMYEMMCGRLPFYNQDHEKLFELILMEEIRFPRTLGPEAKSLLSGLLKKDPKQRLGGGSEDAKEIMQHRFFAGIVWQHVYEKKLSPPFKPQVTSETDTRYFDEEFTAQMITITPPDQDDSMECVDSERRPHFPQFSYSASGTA
T1 sequence (Q07912 110-489, species assumed): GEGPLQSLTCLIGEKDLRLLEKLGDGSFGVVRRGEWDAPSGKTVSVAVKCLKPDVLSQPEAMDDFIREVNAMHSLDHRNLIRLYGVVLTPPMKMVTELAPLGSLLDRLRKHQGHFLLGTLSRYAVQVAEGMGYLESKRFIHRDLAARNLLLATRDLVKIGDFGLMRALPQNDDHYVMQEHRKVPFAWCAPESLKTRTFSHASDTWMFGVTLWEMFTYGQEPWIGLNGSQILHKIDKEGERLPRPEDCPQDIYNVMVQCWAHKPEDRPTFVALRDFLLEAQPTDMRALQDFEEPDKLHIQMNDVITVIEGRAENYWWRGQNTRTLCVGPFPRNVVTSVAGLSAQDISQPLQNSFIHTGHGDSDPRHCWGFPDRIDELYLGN

Regarding `O=C(NCCCN1CCCC1)c1cccc(Nc2ncnc3[nH]cc(C(=O)c4ccccc4)c23)c1` [3-[(5-benzoyl-7H-pyrrolo[2,3-d]pyrimidin-4-yl)amino]-N-(3-pyrrolidin-1-ylpropyl)benzamide], the IC50 in experiment [1] came out at 1.2 µM; in experiment [2], 0.899 µM.
The corresponding values for `O=C(NCCCCN1CCCC1)c1cccc(Nc2ncnc3[nH]cc(C(=O)c4ccccc4)c23)c1` [3-[(5-benzoyl-7H-pyrrolo[2,3-d]pyrimidin-4-yl)amino]-N-(4-pyrrolidin-1-ylbutyl)benzamide] are 2.17 µM and 0.676 µM.
The matching figures for `CN(C)CCCNC(=O)c1cccc(Nc2ncnc3[nH]cc(C(=O)c4ccccc4)c23)c1` [3-[(5-benzoyl-7H-pyrrolo[2,3-d]pyrimidin-4-yl)amino]-N-[3-(dimethylamino)propyl]benzamide]: 0.486 µM and 0.674 µM.
The matching figures for `CC(=O)NCCC(=O)Nc1cccc(Nc2ncnc3[nH]cc(C(=O)c4ccccc4)c23)c1` [3-acetamido-N-(3-((5-benzoyl-7H-pyrrolo[2,3-d]pyrimidin-4-yl)amino)phenyl)propanamide]: 1.34 µM and 0.264 µM.
As for `O=C(Nc1cccc(Nc2ncnc3[nH]cc(C(=O)c4ccccc4)c23)c1)c1ccc(Cl)cc1` [4-chloro-N-(3-{[5-(phenylcarbonyl)-7H-pyrrolo[2,3-d]pyrimidin-4-yl]amino}phenyl)benzamide], the results for the IC50 in experiment [1] and in experiment [2] were 15.7 µM and 5.13 µM, respectively.
The corresponding values for `CN(C)CC(=O)Nc1cccc(Nc2ncnc3[nH]cc(C(=O)c4ccccc4)c23)c1` [N,N-dimethyl-N-(3-{[5-(phenylcarbonyl)-7H-pyrrolo[2,3-d]pyrimidin-4-yl]amino}phenyl)glycinamide] are 0.672 µM and 1.12 µM.
The matching figures for `O=C(c1ccccc1)c1c[nH]c2ncnc(Nc3cccc(NC(=O)C4CCCC4)c3)c12` [N-(3-{[5-(phenylcarbonyl)-7H-pyrrolo[2,3-d]pyrimidin-4-yl]amino}phenyl) cyclopentanecarboxamide]: 19 µM and 7.01 µM.
The matching figures for `O=C(CCc1cccnc1)Nc1cccc(Nc2ncnc3[nH]cc(C(=O)c4ccccc4)c23)c1` [N-(3-{[5-(phenylcarbonyl)-7H-pyrrolo[2,3-d]pyrimidin-4-yl]amino}phenyl)-3-pyridin-3-ylpropanamide]: 1.07 µM and 0.288 µM.
As to `NC(=O)CCC(=O)Nc1cccc(Nc2ncnc3[nH]cc(C(=O)c4ccccc4)c23)c1` [N-(3-{[5-(phenylcarbonyl)-7H-pyrrolo[2,3-d]pyrimidin-4-yl]amino}phenyl)butanediamide], the IC50 was determined as 0.876 µM in experiment [1] and 1.21 µM in experiment [2].
The corresponding values for `CC(=O)Nc1cccc(Nc2ncnc3[nH]cc(C(=O)c4ccccc4)c23)c1` [N-{3-[(5-benzoyl-7H-pyrrolo[2,3-d]pyrimidin-4-yl)amino]phenyl}acetamide] are 3.87 µM and 2.17 µM.
The matching figures for `Nc1cccc(Nc2ncnc3[nH]cc(C(=O)c4ccccc4)c23)c1` [drawing 248, {4-[(3-aminophenyl)amino]-7H-pyrrolo[2,3-d]pyrimidin-5-yl}(phenyl)methanone]: 0.415 µM and 1.25 µM.
The corresponding values for `Nc1ccc(Nc2ncnc3[nH]cc(C(=O)c4ccccc4)c23)cc1` [{4-[(4-aminophenyl)amino]-7H-pyrrolo[2,3-d]pyrimidin-5-yl}(phenyl)methanone] are 0.338 µM and 2.57 µM.
